How the values were obtained:
Sprague Dawley rats [1] = assay: Pulmonary function, BUXCO unrestrained whole body plethysmograph; format: in vivo
Experimental: For rats in the pulmonary/CNS arm, pulmonary function (respiratory frequency and tidal volume) was assessed incorporating the BUXCO Unrestrained Whole Body Plethysmograph technique. Rats were placed in a BUXCO chamber, and a 10-minute baseline-recording period was collected. Following the baseline-recording period, the rats were removed from the chambers, orally dosed and returned for a 60-minute period of data collection. At the conclusion of the experiment, the rats were removed from the chambers, and tested for modified Irwin profiling.
The respiratory signal was measured continuously for 10 minutes prior to dosing and […] post-dosing. Respiratory frequency and tidal volume were then extracted from this respiratory signal, and evaluated on a breath-by-breath basis over the course of a one-minute period. These calculated breath-by-breath values for respiratory frequency and tidal volume were averaged over 5-minute segments for the extent of the monitoring period. The time course for these values was then plotted as the mean ±standard deviation for each group studied. An analysis of variance similar to that described above for cardiovascular parameters was also performed.

Sprague Dawley rats [2] = assay: Cardiovascular monitoring (blood pressure, heart rate) by DSI telemetry; format: in vivo
Experimental: For the cardiovascular/renal function arm, a Data Sciences International (DSI, St Paul, Minn.) TA11PA-C40 implant was placed in the abdominal aorta of each rat.
Cardiovascular function and motility were assessed in conscious freely moving rats using DSI telemetry recording equipment. On the day of recording, the rats were placed into metabolism cages for simultaneous urine collection. Parameters monitored included blood pressure (BP), heart rate (HR) and activity. Measurements were taken at scheduled intervals (i.e., 10 sec. of data collection once every 2 min. for each rat) over 24 hours. An appropriate baseline period of at least 30 minutes was collected prior to animal dosing. For dosing, rats were briefly removed from their cage, weighed, dosed and returned.
Blood pressure, heart rate and activity were measured for 10 seconds once every 2 minutes for 24 hours. Blood pressure and heart rate were routinely evaluated at baseline, 30 min, 1 h, 2 h, 4 h, 6 h, 8 h, 12 h, 16 h and 20 h post-administration. The last 20 minutes before the start of treatment on Day 1, time-point values were averaged and taken as the baseline value for each rat. The other time-point values were obtained by averaging data 10 minutes prior and 10 minutes post each time-point. […] An analysis of variance was performed with the factors: treatment, animal (according to treatment), time, and treatment time interaction; time incorporated all measurements on the four days. The adjusted mean values post-treatment were compared with baseline. If there was a significant treatment time interaction, tests were performed for comparing the three treatment groups for each time-point. If such a test was significant, the adjusted mean values of the treated group were compared with the concurrent vehicle group for this time-point.

Sprague Dawley rats [3] = format: in vivo
Experimental: Additional CNS monitoring was performed following pulmonary function assessment in that arm of the study. Rats were returned to their home cages and at 65 minutes post-dosing, the rats were placed in Plexiglas observation cylinders. Compound treated rats were systematically compared to vehicle treated rats for behavioral, neurologic and autonomic changes according to a modification of the method described by Irwin. […] The following functions were assessed: increased/decreased motor activity, ataxia, paralysis, tremor, convulsions, abnormal respiration, enhanced salivation, skin color, abnormal feces, death, righting reflex, visual orientation, grip reflex, muscle tone, rectal body temperature, and tail pinch. Body temperatures were also recorded both prior to dosing (baseline) and during modified Irwin testing post-dosing using a Yellow Springs Instruments Telethermometer and rectal probe or equivalent. Following modified Irwin testing, rats were administered anesthesia to effect and blood was collected.
For body temperatures, CBC values, clinical chemistry values, plasma levels and organ weight ratios, means were calculated (±standard deviation or standard error of the mean) and reported where applicable. Statistical evaluations for compound related effects were performed using the Student's t test (paired) and reported as significant if p<0.05.

Sprague Dawley rats [4] = assay: Renal function monitoring (urine collection in metabolism cages); format: in vivo; settings: 10 and 30 mg/kg p.o., acute; males and females (FIG. 4)
Experimental: Renal function monitoring was conducted simultaneously with cardiovascular testing. Urine was collected for 0-8 and 8-24 hour time-points. Prior to telemetry data collection, DSI receivers equipped with special mounting strips were hung upside down on metabolism racks (Lab Products, Maywood, N.J.). Metabolism cages were then suspended from the DSI receivers and assembled to provide for food, water, and urine collection. […] Rats were weighed and placed into the recording metabolism cages for a baseline collection period (i.e., 30 minutes). After baseline, each rat was removed, dosed and returned. Pre-weighed collection tubes were placed under each metabolism cage. At 8 hours, the collection tubes were removed, weighed, and replaced with another set of pre-weighed tubes for the 8-24 hour time-point. At 24 hours, collection tubes were again removed and weighed. Following the 24 hour urine collection, rats were anesthetized and blood was collected.
Renal function was evaluated in the cardiovascular/renal function arm. Urine volume was calculated gravimetrically at each time-point. Urine flow was then calculated by (urine volume/time times or ×100/body weight (g)). Flow values were then plotted as the mean ±standard deviation for each group. […] Statistical significance (p<0.05) was assessed using the paired Student's t test.

Wistar rats = settings: 1, 3 or 10 mg/kg p.o., acute
[5] = Body weight, PET rat study; format: in vivo, Sprague Dawley rats; settings: 300 and 1000 mg/kg p.o., subacute; males and females (FIG. 3)
Experimental: FIG. 3. […] Individual rat body weights were recorded daily in grams using an Ohaus Navigator™ digital balance.
Male and female Sprague Dawley rats from Charles River were used in these experiments. For the “standard” protocol, a total of 48 rats were used. Twenty-four rats (12 female rats and 12 male rats) were placed in the acute pulmonary function/CNS evaluation arm of the study, and 24 rats (12 female rats and 12 male rats) were placed in the subacute cardiovascular/renal arm of the study. Rats in both arms were further divided into 4 subgroups (3 male rats and 3 female rats) which were dosed with vehicle or compound at dose 1, dose 2; or dose 3. Rats in the pulmonary function/CNS evaluation arm of the study were administered a single dose of vehicle or compound. […]
Rats in the cardiovascular/renal function arm of the study (with telemetry implants) were administered daily doses of vehicle or compound for 5 days. Blood pressure, heart rate and motility were continuously monitored 24 hours/day over four days via telemetry recording. Urine was collected 0-8 and 8-24 hours post-dosing on Days 1 and 4 and assessed for changes in volume output and electrolyte excretion. […]
Cardiovascular function and motility were assessed in conscious freely moving rats using DSI telemetry recording equipment. […] Parameters monitored included blood pressure (BP), heart rate (HR) and activity. […]

C[C@H](N)Cc1ccccc1 [d-amphetamine]
Respiratory frequency (Sprague Dawley rats [1]; 2 and 8 mg/kg p.o., male and female, acute and subacute dosing (FIG. 1)): increased in a dose dependent manner | BP (Sprague Dawley rats [2]; males, 8 mg/kg p.o.): slightly increased | HR (Sprague Dawley rats [2]; males, 8 mg/kg p.o.): slightly increased | Overt behavioral effects observed (Sprague Dawley rats [3]; 2 and 8 mg/kg p.o., male and female, acute and subacute): increased motility, sniffing, rearing, head weaving and vocalization

CN1C(=O)CN=C(c2ccccc2)c2cc(Cl)ccc21 [diazepam]
Effects in the pulmonary system (Sprague Dawley rats [1]; 20 and 80 mg/kg p.o.): No relevant effects | Effects in the CV system (Sprague Dawley rats [2]; 20 and 80 mg/kg p.o.): No relevant effects | Modified Irwin profiling (Sprague Dawley rats [3]; rat, in vivo): dose dependent effects on motility, coordination, muscle tone and body temperature

NS(=O)(=O)c1cc(C(=O)O)c(NCc2ccco2)cc1Cl [furosemide]
Urine output (Sprague Dawley rats [4]): dose dependently increased

COC(=O)C1=C(C)NC(C)=C(C(=O)OC)C1c1ccccc1[N+](=O)[O-] [nifedipine]
Body temperature (Wistar rats): No effects | Heart rate (Wistar rats): dose dependent increase | Motility (Wistar rats): No effects | Respiration (Wistar rats): No effects

C[C@]12C=CC(=O)C=C1CC[C@@H]1[C@@H]2[C@@H](O)C[C@@]2(C)[C@H]1CC[C@]2(O)C(=O)CO [prednisolone]
Body weight [5]: decrease in body weight | Effects in the CV system (Sprague Dawley rats [2]; 300 and 1000 mg/kg p.o.): No relevant effects

— US20020136691A1, “Pharmacological evaluation test (PET) in animals for continuous assessment of physiological functions” (priority 2000, published 2002)
